According to patent US12616751B2, “Photosensitizing antibody-fluorophore conjugates” (The USA, as represented by the Secretary, Department of …, priority 2010, dated 2026):
Values belong to the molecule of their own block, whether it stands above or below them.

Columns and labels:
[1] = Extinction coefficient of photosensitizers; type: physicochemical
Description: Currently commercially available from LI-COR (Lincoln, Nebr.). IR700 has several favorable chemical properties. Amino-reactive IR700 is a relatively hydrophilic dye and can be covalently conjugated with an antibody using the NHS ester of IR700. IR700 also has more than 5-fold higher extinction coefficient (2.1×10^5 M^−1cm^−1 at the absorption maximum of 689 nm), than conventional photosensitizers such as the hematoporphyrin derivative Photofrin® (1.2×10^3 M^−1cm^−1 at 630 nm), meta-tetrahydroxyphenylchlorin; Foscan® (2.2×10^4 M^−1cm^−1 at 652 nm), and mono-L-aspartylchlorin e6; NPe6/Laserphyrin® (4.0×10^4 M^−1cm^−1 at 654 nm).

3T3/HER2+ cells = test: Photoimmunotherapy (PIT) phototoxicity, LIVE/DEAD assay; type: cell-based; settings: 200 nM, equivalent IR700 concentration of conjugate
Description: Cells were grown in RPMI 1640 supplemented with 10% fetal bovine serum and 1% penicillin/streptomycin in tissue culture flasks in a humidified incubator at 37° C. in an atmosphere of 95% air and 5% carbon dioxide.
Culture medium was replaced with phenol red-free medium after washing with phosphate buffered saline (PBS).

[2] = Excretion of free and catabolized IR700; settings: in vivo
[3] = IR700 at absorption maximum 689 nm; Photofrin 630 nm; Foscan 652 nm; NPe6 654 nm; cited from earlier work
A431 tumors = test: In vivo nanodrug-delivery after PIT (super EPR); parameters: species or system mice
Description: In vivo nanodrug-delivery after photoimmunotherapy. Six-week-old to 8-week-old female homozygote athymic nude mice were purchased from Charles River (National Cancer Institute Frederick). During treatment, mice were anesthetized with isoflurane. Two million A431 cells were injected subcutaneously in the right and left dorsums of each mouse. Five days after cell injection, 100 μg of Pan-IR700 was administered intravenously, and 1 day later, either side of tumor was irradiated with NIR light from a red-light-emitting diode at wavelengths of 670-690 nm and a power density of 10-100 J cm^−2, as measured with an optical power meter (PM 100 (Thorlabs)). One hour after PIT, Pan-IR800 (100 μg), Qtracker 800 Non-Targeted Quantum dots (32.5 pmol), or DaunoXome (30 mg kg^−1) were injected intravenously, and the in vivo fluorescence images were obtained with a Pearl Imager (LI-COR Biosciences) and a Maestro Imager (CRi). For MR imaging, SPIO (Feridex) was administered intravenously 1 h post-PIT and MR images were obtained. The tumors were excised, and frozen or paraffin-embedded for histological study and fluorescence microscopy study after ex vivo imaging.
In vivo fluorescence imaging. Five days after injection of two million A431 or 3T3-HER2 cells in right and left dorsums, and seven days after MDA-MB-468 cells injection in mammary pads, tumor volumes of approximately 75 mm^3 were selected. Signals of IR700 and IR800 was detected with a fluorescence camera (Pearl Imager, LI-COR Biosciences) using the 700 and 800 nm fluorescence channel Qdot800 was detected with Maestro in vivo Imaging System (CRi) using a band-pass filter, which ranges between 575 to 605 nm (excitation) and a long-pass NIR filter over 800 nm (emission). Fluorescence images of daunorubicin were also obtained with Maestro using a band-pass filter from 503 to 555 nm (excitation) and a long-pass green filter over 580 nm (emission). The tunable emission filter was automatically stepped in 10 nm increments from 650 to 950 nm and from 500 to 800 nm for the NIR and green filter sets at constant exposure. The spectral fluorescence images consist of autofluorescence spectra and the spectra from Qdot800 and daunorubicin, which were then unmixed, based on their spectral patterns using commercial software (Maestro software; CRi). Mice were sacrificed with carbon dioxide immediately after in vivo imaging. The tumors were excised, and frozen or paraffin-embedded for histological study and fluorescence microscopy study after ex vivo imaging.
Fluorescence microscopy. Ten-μm-thick frozen or paraffin sections were prepared and fluorescence in tumor sections was detected using an Olympus BX81 microscope (Olympus America, Inc., Melville, N.Y.) equipped with the following filters: excitation wavelength 590 to 650 nm, and 480 to 550 nm, emission wavelength 662.5 to 747.5 nm, 765 to 855 nm, and 590 nm long pass for IR700, Qdot800, and daunorubicin, respectively. Transmitted light differential interference contrast images were also acquired. H&E staining and Prussian Blue staining were performed according to standard protocol.
Optimal timing of second shot. To determine the optimal timing of second shot, Pan-IR800 (100 μg) was administered intravenously into A431 bearing mice at 1, 6, and 24 h after PIT treatment, and the dynamic imaging for 1 h was carried out with Pearl Imager according to the protocol described above.

MDA-MB-468 tumors = test: In vivo delivery of Pan-IR800 after Pan-IR700 PIT; parameters: species or system mice; settings: 50 J/cm2 to right side tumor; agent 1 h after PIT
Description: In vivo fluorescence imaging. Five days after injection of two million A431 or 3T3-HER2 cells in right and left dorsums, and seven days after MDA-MB-468 cells injection in mammary pads, tumor volumes of approximately 75 mm^3 were selected. Signals of IR700 and IR800 was detected with a fluorescence camera (Pearl Imager, LI-COR Biosciences) using the 700 and 800 nm fluorescence channel Qdot800 was detected with Maestro in vivo Imaging System (CRi) using a band-pass filter, which ranges between 575 to 605 nm (excitation) and a long-pass NIR filter over 800 nm (emission). Fluorescence images of daunorubicin were also obtained with Maestro using a band-pass filter from 503 to 555 nm (excitation) and a long-pass green filter over 580 nm (emission). The tunable emission filter was automatically stepped in 10 nm increments from 650 to 950 nm and from 500 to 800 nm for the NIR and green filter sets at constant exposure. The spectral fluorescence images consist of autofluorescence spectra and the spectra from Qdot800 and daunorubicin, which were then unmixed, based on their spectral patterns using commercial software (Maestro software; CRi). Mice were sacrificed with carbon dioxide immediately after in vivo imaging. The tumors were excised, and frozen or paraffin-embedded for histological study and fluorescence microscopy study after ex vivo imaging. […]

time to excretion into urine [2]: ≤ 1 h
Molecule: IRDye® 700DX [IR700]
extinction coefficient higher than conventional photosensitizers [1]: more than 5 fold
phototoxicity of dye alone (3T3/HER2+ cells): did not incorporate into the cells or induce phototoxcity in cells
organ accumulation [2]: without accumulation in any specific organ
extinction coefficient [3]: 210000 M⁻¹ cm⁻¹

Molecule: Photofrin®
extinction coefficient [3]: 1200 M⁻¹ cm⁻¹

Molecule: C=Cc1c(C)c2cc3nc(c(CC(=O)N[C@@H](CC(=O)[O-])C(=O)[O-])c4[nH]c(cc5nc(cc1[nH]2)C(C)=C5CC)c(C)c4C(=O)[O-])[C@@H](CCC(=O)[O-])[C@@H]3C.[Na+].[Na+].[Na+].[Na+] [NPe6/Laserphyrin®, mono-L-aspartylchlorin e6]
extinction coefficient [3]: 40000 M⁻¹ cm⁻¹

Molecule: Oc1cccc(-c2c3nc(c(-c4cccc(O)c4)c4ccc([nH]4)c(-c4cccc(O)c4)c4nc(c(-c5cccc(O)c5)c5ccc2[nH]5)CC4)C=C3)c1 [Foscan®, meta-tetrahydroxyphenylchlorin]
extinction coefficient [3]: 22000 M⁻¹ cm⁻¹

Molecule: Pan-IR800: panitumumab conjugated to IRDye 800CW
change of perfusion by PIT with time after treatment (A431 tumors; Pan-IR800 given 1, 6, and 24 h after PIT): completely stopped within 24 h
uptake/signal in control tumors without NIR light (A431 tumors; agent i.v. 1 h after PIT of contralateral tumor): no change on signal intensities
accumulation in PIT-treated tumors (A431 tumors; agent i.v. 1 h after Pan-IR700 PIT): facilitated the permeability
signal intensities in PIT-treated tumors versus light dose (A431 tumors; mouse, in vivo): increased with time in a light dose-dependent manner
tumor uptake when given 24 h after PIT (A431 tumors; mouse, in vivo): cannot be taken up by the tumor
tumor shown in dynamic images (MDA-MB-468 tumors): only the right sided tumor was clearly shown up within 10 min
